Source: patent EP1721613A1, “Hesperidin for the treatment of epilepsy, migraine, schizophrenia, depression and drug abuse” (priority 2005, dated 2006)
Entries after “also recorded” stand apart in the source; their conditions may differ.

What was measured:
[1] = test system: Pyramidenzellen im Hippokampus-Schnittpräparat; assay: Hippocampal slice in vitro: population spike after single stimuli and long-term potentiation after theta-burst stimulation; format: cell-based, Ratte; details: n=6 slices; for Langzeitpotenzierung durch TBS: theta-burst stimulation, 5 bis 60 µM for Hesperidin
Description: (§1) Wirkungen von Hesperidin und Hesperetin auf die Erregbarkeit der Pyramidenzellen wurden im Hippokampus-Schnittpräparat der Ratte bestimmt. Die Analyse der Wirkungen erfolgte auf drei Ebenen. Zunächst wurde anhand der Applikation von Einzelreizen die normale Erregbarkeit überprüft und anschließend nach einer sog. "Theta-burst-Stimulation" die Auswirkungen auf die Langzeitpotenzierung gemessen. Im nächsten Schritt wurde versucht, die Wirkung von Krampf auslösenden Substanzen zu antagonisieren. In einer dritten Versuchsserie wurde die Substanz eine Woche lang appliziert und dann "ex vivo" die Änderung der Erregbarkeit auf eine Provokation mit der Krampf auslösenden Substanz 3-Aminopyridin (3-AP) gemessen.
(§2) Für die Durchführung dieser Studien wurden 30 erwachsene männliche CD-Ratten verwendet. Die Isolation des Hippokampus erfolgte an äthemarkotisierten und anschließend exsanguinierten Tieren.
(§3) Das Experiment selbst wurde in einer sog. "Base Unit" mit Haas Top" (Firma Medical Systems Corp., USA) bei 35 Grad Celsius durchgeführt. Der mit Hilfe peristaltischer Pumpen (Infusomat B. Braun Melsungen AG) superfundierte Hippokampus-Schnitt lag auf einem Stück Gaze. Eingeleitetes Carbogen hielt die erforderliche Sauerstoffzufuhr der Lösung aufrecht. Die Durchflussgeschwindigkeit betrug 200 ml/h.
Die Stimulation der CA2-Region (Schaffer-Kollateralen) erfolgte unter Verwendung eines Reizgenerators (Laborcomputer Labteam der Fa. MediSyst GmbH, Linden, DE) über eine Isoliereinheit mit Hilfe einer bipolar konzentrischen Stahlelektrode (Rhodes Medical Systems, USA. Die Impulsbreite betrug 200 µs, die Stromstärke konstant 200 µA. Der Reizgenerator löste im Abstand von jeweils 20 Sekunden 4 Einzelreizungen aus, die im Schnitt insgesamt 4 Populationsspikes evozierten. Die Ableitung der Antwort erfolgte in der […] Region. Das System mittelte die Reizantwort der 4 Spike-Amplituden.
Dabei wurde der Schnitt zunächst mit Kontrolllösung superfundiert. […]

[2] = test system: Pyramidenzellen des Hippokampus; assay: Hippocampal slice ex vivo after 7 days of in vivo dosing: provocation with 4-aminopyridine; set-up: species or system Ratte; details: 500 mg/kg daily over 7 days in vivo, compared with placebo
Description: as §1, with “In einer dritten Versuchsserie wurde die Substanz eine Woche lang appliziert und dann "ex vivo" die Änderung der Erregbarkeit auf eine Provokation mit der Krampf auslösenden Substanz 3-Aminopyridin (3-AP) gemessen.” left out
Dieselbe Versuchsanordnung wurde letztendlich noch einmal nach in vivo Applikation beider Substanzen in einer repetitiven Dosierung von 500 mg/kg täglich über 7 Tage im Vergleich zu Placebo angewandt (sog. "ex vivo" Design). Dabei sollte überprüft werden, ob eine repetitive Gabe zur Erregbarkeitsveränderungen der Pyramidenzellen des Hippokampus führt. […] Dieses Ergebnis ist auch ein Hinweis darauf, dass in vivo neben dem im Darm entstehenden Hesperetin auch genügend wirksames Hesperidin das Gehim erreicht. Gleichzeitig wird dadurch nochmals bestätigt, dass Hesperidin und Hesperetin ein unterschiedliches Wirkprofil haben.

[3] = test system: Pyramidenzellen im Hippokampus-Schnittpräparat; assay: Hippocampal slice in vitro: antagonism of the 4-aminopyridine-induced change of excitability; format: cell-based, Ratte; details: superfused together with 4-Aminopyridin
Description: as §1, §2
as §3, with “ml/h. […]” for “ml/h.”

[4] = test system: autosomaler dominanter nocturner Frontallappenepilepsie; assay: Therapeutic trial in one patient with drug-resistant epilepsy; format: in vivo, Patientin
Description: Um das Konzept auch am Patienten zu überprüfen, wurde einer jungen unter autosomaler dominanter nocturner Frontallappenepilepsie leidenden Patientin, die selbst in Gegenwart von 3 Gramm unterschiedlicher Antiepileptika weiterkrampfte (im Mittel 20 Anfälle pro Monat) täglich 1 Gramm Hesperidin abends vor dem Einschlafen oral über einen Zeitraum von 2 Monaten verabreicht. […] Das Ergebnis der Untersuchungen ist in Abb. 12 dokumentiert.

Fischer-344 Ratten = assay: Tele-Stereo-EEG (changes of EEG frequencies in freely moving rats); format: in vivo, Ratte
Procedure: Die Veränderungen der EEG-Frequenzen nach intraperitonealer Gabe von Salzlösung (Kontrolle) bzw. verschiedener Dosen von Hesperidin (10 bis 300 mg/kg Körpergewicht sowie oral 500 mg/kg) wurden bestimmt. Ebenso wurden verschiedene Dosierungen von Hesperetin (80-320 mg/kg i.p. sowie 500 mg/kg oral untersucht.
Die Untersuchungen wurden analog der durch W. Dimpfel beschriebenen Methode (Dimpfel W Preclinical data base of pharmaco-specific rat EEG fingerprints (Tele-Stereo-EEG). Eur J Med Res (2003) 8: 199-207) folgendermaßen durchgeführt: Zwölf männlichen erwachsenen Fischer-344 Ratten (Tag-Nacht konvertiert) wurden im Alter von 6 Monaten 4 bipolar konzentrische Elektroden zusammen mit einem Mikrostecker auf einer gemeinsamen Basisplatte implantiert. Der Stecker diente der Aufnahme eines 4-Kanal-Senders zur telemetrischen Übertragung der aus frontalem Kortex, Hippokampus, Striatum und Formatio Reticularis abgeleiteten Feldpotentiale. Die Signale wurden auf einem Computer System (Software "EEG-Analyse", Betriebssystem OS Science, Laborrechner "LabTeam" der Firma MediSyst, Linden, DE) in Echtzeit einer Fast-Fourier-Transformation unterworfen und die Leistungsdichtespektren jeweils über 60 Minuten gemittelt. Die Unterteilung der Spektren in 6 verschiedene Frequenzbereiche erlaubte die Erfassung pharmako-spezifischer Veränderungen in Bezug auf die jeweils vor Applikation gemessenen Vorwerre innerhalb dieser Frequenzbänder.
Zum Applikationsprotokoll der Substanzen: die Substanzen wurden i.p. 45 Minuten nach Beginn der Messungen (Vorwert) injiziert. Fünf Minuten später wurden die Messungen wieder gestartet, mindestens über die nächsten 5 Stunden kontinuierlich analysiert und in 60-minütigen Perioden zusammengefaßt. Die Testsubstanzen wurden in einer Dosierung von 10 bis 500 mg/kg appliziert. Die experimentelle Serie wurde mit der Injektion von Salzlösung (Kontrolle), die zu keiner auffälligen Änderung führte, begonnen.
Der statistische Vergleich der Versuche zu den Ergebnissen, die nach Gabe von Salzlösung gemessen wurde, erfolgte mit Hilfe einer multivariaten Analyse nach Ahrens und Läuter (siehe H. Ahrens, J. Läuter "Mehrdimensionale Varianzanalyse" (1974), Akademie Verlag, Berlin) auf der Basis der Veränderungen innerhalb der einzelnen Frequenzbänder in allen Hirnregionen als Variablen.

Structure (SMILES)	Langzeitpotenzierung durch TBS [1]	durch 4-Aminopyridin provozierte Erhöhung der Erregbarkeit (ex vivo) [2]	Amplitude des Populationsspikes bei Einzelreizung ([1]; single stimuli, 5 bis 60 µM)	Änderung der Erregbarkeit der Pyramidenzellen durch die Gegenwart von 4-Aminopyridin [3]	Ausprägung des alpha1 Fokus im Frontallappen (Nachuntersuchung) ([4]; 1 Gramm daily orally for 2 months)	Häufigkeit der Anfälle ([4]; 1 Gramm daily orally in the evening for 2 months, baseline on average 20 seizures per month under 3 g antiepileptics)	Veränderungen der Leistungsdichte in den einzelnen Hirnregionen (Fischer-344 Ratten; 20 mg/kg i.p.)	Veränderungen der Leistungsdichte in den einzelnen Hirnregionen (Fischer-344 Ratten; 40 mg/kg i.p.)	Veränderungen der Leistungsdichte in den einzelnen Hirnregionen (Fischer-344 Ratten; 300 mg/kg i.p., significant at least at P < 5%)	Veränderungen der Leistungsdichte in den einzelnen Hirnregionen (Fischer-344 Ratten; 80 und 160 mg/kg i.p., statistically significant pattern, seen over the 5 hours of the test)	EEG-Muster im Vergleich zu Referenzmedikamenten (Diskriminanzanalyse) (Fischer-344 Ratten; higher dose)	EEG-Muster im Vergleich zu Referenzmedikamenten (Diskriminanzanalyse) (Fischer-344 Ratten; low doses)	Veränderungen der elektrischen Hirnaktivität (Fischer-344 Ratten; 320 mg/kg i.p., after 2 hours, frontal cortex)	Veränderungen der elektrischen Hirnaktivität (Fischer-344 Ratten; i.p. single dose, low dose range)
Fc1ccc([C@@H]2CCNC[C@H]2COc2ccc3c(c2)OCO3)cc1 [Paroxetin, reference compound]	unterdrückt die Langzeitpotenzierung	–	–	–	–	–	–	–	–	–	–	–	–	–
COc1ccc([C@@H]2CC(=O)c3c(O)cc(O[C@@H]4O[C@H](CO[C@@H]5O[C@@H](C)[C@H](O)[C@@H](O)[C@H]5O)[C@@H](O)[C@H](O)[C@H]4O)cc3O2)cc1O [Hesperidin, Hesperetin 7-rhamnoglucosid]	Unterdrückung der Langzeitpotenzierung; also recorded: Konzentrations-abhängig unterdrückt	Unterdrückung der durch 4-Aminopyridin provozierten Erhöhung	Unterdrückung der Pyramidenzellaktivität nach Einzelreizung; also recorded: Konzentrations-abhängigen Abfall der Amplitude des Populationsspikes	vermindert	deutlich geringere Ausprägung des alphal Fokus im Frontallappen	um die Hälfte reduziert	Zunahmen der alpha1 und beta Aktivität	Zunahmen der elektrischen Leistung im alpha1 und beta Bereich	generellen Abfall der elektrischen Leistung	Abnahmen der elektrischen Leistung im delta, theta und alpha2 Bereich	dem nach Gabe klassischer Antidepressiva	wie es für die Applikation von Mitteln gegen Migräne und Schizophrenie (Metoprolol bzw. Haloperidol und Risperidon) typisch ist	–	–
COc1ccc([C@@H]2CC(=O)c3c(O)cc(O)cc3O2)cc1O [Hesperetin]	–	nicht jedoch in den mit Placebo oder Hesperetin behandelten Tieren	–	nicht jedoch von Hesperetin vermindert	–	–	–	–	–	–	dem klassischer Antikonvulsiva ähnlich	wie es für die Applikation von Mitteln gegen Migräne und Schizophrenie (Metoprolol bzw. Haloperidol und Risperidon) typisch ist	Zunahmen der delta und alpha2 Aktivität	im niedrigen Dosisbereich dem nach Gabe von Hesperidin entsprach
